According to paper PMC6161602, “Synthesis and characterisation of (Z)-styrylbenzene derivatives as potential selective anticancer agents” (Journal of Enzyme Inhibition and Medicinal Chemistry, 2018):

Legend:
HeLa cells = system: HeLa cells; parameters: method as in PMID 27887843; conditions: printed in Figure 1, previous experiment ref 2; cited from earlier work
L-02 cells = system: L-02 cells; parameters: method as in PMID 27887843; conditions: L-02, printed in Figure 1, previous experiment ref 2; cited from earlier work
[1] = system: HeLa cervical cancer cell; assay: MTT cell growth inhibition assay, HeLa; assay type: cell-based, human; conditions: Homo sapiens, 48 h incubation
Text: (§1) All human cell lines were used in this study. MGC-803 late-stage differentiation gastric cancer cell, A549 lung cancer cell, HepG2 hepatoma cell, AGS gastric cancer cell, BEL-7402 liver cancer cell, HCT-116 colorectal cancer cell, HeLa cervical cancer cell, SGC-7901 early differentiation gastric cancer cell, L-02 normal liver cell, MCF-7 breast cancer cell, and MCF-10A normal breast cell were initially purchased from American Type Culture Collection (ATCC, Manassas, VA, USA). RPMI-1640 media, Dulbecco’s modified Eagle’s medium (DMEM), and foetal bovine serum (FBS) were provided from Gibco Company (Grand Island, NY, USA). The cells were maintained in DMEM or RPMI-1640, supplemented with 10% FBS, 100 IU/mL penicillin and […] (Grand Island, NY, USA), and at 37 °C in a humidified atmosphere containing 5% CO2.
(§2) Cells were plated in 96-well plates at a density of 30–40% to ensure exponential growth throughout the experimental period, and then allowed to adhere for 1 day[21]. Next, the cells were treated with four serial concentrations (1, 10, 50, and 100 µM) of each compound. Taxol, CA-4, and CA-4P (phosphorylated form of CA-4) were used as positive controls. After 48 h incubation, MTT solution was added to each well at a final concentration of 2 mg/mL, and incubated for an additional 4 h. Next, the MTT solution was removed and 150 µL of dimethyl sulphoxide (DMSO)/well was added (Sigma-Aldrich, St Louis, MO, USA). The plates were shaken vigorously at RT to ensure complete solubilisation, and absorption at 492 nm was determined.
(§3) According to standard protocol, preliminary in vitro anti-proliferative activities of the synthesised compounds were evaluated by MTT assay, using nine human cancer cell lines (MGC-803, A549, HepG2, AGS, BEL-7402, HCT116, HeLa, SGC-7901, and MCF-7) and two normal human cell lines (L-02 and MCF-10A), and compared with those of CA-4, CA-4P, and taxol.

[2] = system: nine human cancer cell lines (MGC-803, A549, HepG2, AGS, BEL-7402, HCT116, HeLa, SGC-7901, and MCF-7); assay: MTT assay, panel of cell lines (result in words); assay type: cell-based; conditions: against all nine cancer cell lines
Text: as §1, §2, §3

[3] = system: MCF-10A normal breast cell; assay: MTT cell growth inhibition assay, MCF-10A (normal); assay type: cell-based, human; conditions: Homo sapiens, 48 h incubation, MCF-10A normal cells
Text: as §1, §2, §3

BEL-7402 cells [4] = assay: MTT cell growth inhibition assay, BEL-7402; assay type: cell-based, human; conditions: for IC50: Homo sapiens, MTT, 48 h incubation, Bel-7402
Text: as §1, §2, §3

MCF-7 breast cancer cell = assay: MTT cell growth inhibition assay, MCF-7; assay type: cell-based, human; conditions: for IC50: Homo sapiens, MCF7, MTT, 48 h incubation, MCF-7
Text: as §1, §2, §3

AGS cells = assay: MTT cell growth inhibition assay, AGS; assay type: cell-based, human; conditions: for IC50: Homo sapiens, MTT, 48 h incubation, AGS
Text: as §1, §2, §3

[5] = system: SGC-7901 early differentiation gastric cancer cell; assay: MTT cell growth inhibition assay, SGC-7901; assay type: cell-based, human; conditions: Homo sapiens, 48 h incubation
Text: as §1, §2, §3

L-02 normal liver cell = assay: MTT cell growth inhibition assay, L-02 (normal); assay type: cell-based, human; conditions: Homo sapiens, 48 h incubation, L-02 normal cells
Text: as §1, §2, §3

A549 lung cancer cell = assay: MTT cell growth inhibition assay, A549; assay type: cell-based, human; conditions: for IC50: Homo sapiens, MTT, 48 h incubation, A549
Text: as §1, §2, §3

HCT116 cells = assay: MTT cell growth inhibition assay, HCT116; assay type: cell-based, human; conditions: for IC50: Homo sapiens, HCT-116, MTT, 48 h incubation, HCT116
Text: as §1, §2, §3

HepG2 hepatoma cell = assay: MTT cell growth inhibition assay, HepG-2; assay type: cell-based, human; conditions: for IC50: Homo sapiens, HepG2, MTT, 48 h incubation, HepG-2
Text: as §1, §2, §3

MGC-803 cells = assay: MTT cell growth inhibition assay, MGC-803; assay type: cell-based, human; conditions: for IC50: MTT, 48 h incubation, MGC-803
Text: as §1, §2, §3

BEL-7402 cells [6] = assay: Analysis of apoptosis by flow cytometry (Annexin V-FITC/PI); assay type: cell-based, human; conditions: BEL-7402, 0.1 µM, 12 h; vehicle 4.7%
Description: Apoptosis was detected using an apoptosis detection kit. BEL-7402 cells were plated in 6-well plates (5.0 × 10^5 cells/well) and incubated at 37 °C overnight. Exponentially growing cells were then incubated with 6h at either 0.01 or 0.1 µM, or taxol at 0.1 µM. Vehicle group was treated with 0.1% DMSO. Following 12 h of incubation, cells were analysed for apoptosis as previously described, using a FACSCalibur flow cytometer with Cell Quest software (Becton-Dickinson, Franklin Lakes, NJ, USA).

| SMILES | IC50 [1] [µM] | in vitro anticancer activity [2] | IC50 [3] [µM] | IC50 (BEL-7402 cells [4]) [µM] | IC50 (MCF-7 breast cancer cell) [µM] | IC50 (AGS cells) [µM] | IC50 [5] [µM] | IC50 (L-02 normal liver cell) [µM] | IC50 (A549 lung cancer cell) [µM] | melting point [°C] | IC50 (HCT116 cells) [µM] | IC50 (HepG2 hepatoma cell) [µM] | IC50 (MGC-803 cells; Homo sapiens, MGC-803, 48 h) [µM] | also measured |
| --- | --- | --- | --- | --- | --- | --- | --- | --- | --- | --- | --- | --- | --- | --- |
| CCOc1ccc(/C=C(\C#N)c2cc(OC)cc(OC)c2)cc1 [Compound 3] | – | – | – | – | – | – | – | – | – | – | – | – | – | IC50 (HeLa cells): 7.7 µM; IC50 (L-02 cells): > 100 µM |
| COc1cc(/C(C#N)=C/c2ccc([N+](=O)[O-])cc2)cc(OC)c1OC [Compound 6a, (Z)-3-(4-Nitrophenyl)-2-(3,4,5-trimethoxyphenyl)acrylonitrile] | > 100 | extremely poor | > 100 | > 100 | > 100 | > 100 | > 100 | > 100 | > 100 | 174 to 176 | > 100 | > 100 | > 100 | – |
| COc1cc(/C(C#N)=C/c2ccc(Oc3ccccc3)cc2)cc(OC)c1OC [Compound 6b] | > 100 | extremely poor | > 100 | > 100 | > 100 | > 100 | > 100 | > 100 | > 100 | 92 to 94 | > 100 | > 100 | > 100 | – |
| COc1cccc(/C=C(\C#N)c2cc(OC)c(OC)c(OC)c2)c1 [Compound 6c, (Z)-3-(3-Methoxyphenyl)-2-(3,4,5-trimethoxyphenyl)acrylonitrile] | > 100 | extremely poor | > 100 | > 100 | 65.1 ± 6.64 | > 100 | > 100 | > 100 | > 100 | 144 to 146 | > 100 | > 100 | – | IC50 (MGC-803 cells; Homo sapiens): 22.6 ± 9.25 µM |
| COc1cc(/C=C(\C#N)c2cc(OC)c(OC)c(OC)c2)cc(OC)c1OC [Compound 6e, (Z)-2,3-Bis(3,4,5-trimethoxyphenyl)acrylonitrile] | > 100 | weak anticancer activity | 15.6 ± 2.45 | 31.2 ± 2.01 | 32.9 ± 17.6 | 44.6 ± 9.11 | > 100 | 70.6 ± 7.65 | > 100 | 84 to 86 | 32.1 ± 5.25 | > 100 | > 100 | – |
| COc1cc(/C(C#N)=C/c2ccccn2)cc(OC)c1OC [Compound 7b, (Z)-3-(Pyridin-2-yl)-2-(3,4,5-trimethoxyphenyl)acrylonitrile] | > 100 | extremely poor | 33.4 ± 17.4 | 44.6 ± 32.7 | 16 ± 5.67 | > 100 | > 100 | > 100 | > 100 | 128 to 130 | > 100 | > 100 | > 100 | – |
| Oc1ccc(/C=C/c2cc(O)cc(O)c2)cc1 [Resveratrol, (E)-3,5,4′-trihydroxystilbene] | – | – | – | – | – | – | – | – | – | – | – | – | – | IC50 (HeLa cells): 120 µM |
| CC(=O)O[C@H]1C(=O)[C@@]2(C)[C@H]([C@H](OC(=O)c3ccccc3)[C@]3(O)C[C@H](OC(=O)[C@H](O)[C@@H](NC(=O)c4ccccc4)c4ccccc4)C(C)=C1C3(C)C)[C@]1(OC(C)=O)CO[C@@H]1C[C@@H]2O [Taxol, reference compound] | 13 ± 0.47 | – | 0.18 ± 0.02 | 0.09 ± 0.02 | 0.08 ± 0.01 | 0.02 ± 0.01 | > 100 | > 100 | 0.44 ± 0.02 | – | 0.03 ± 0.01 | 0.94 ± 0.03 | < 0.06 | SI IC50 (L-02/BEL-7402) (BEL-7402 cells [4]; selectivity index, IC50 (L-02)/IC50 (BEL-7402)): >1111; SI IC50 (MCF-10A/MCF-7) (MCF-7 breast cancer cell; selectivity index, IC50 (MCF-10A)/IC50 (MCF-7)): >2.2; SI IC50 (L-02/AGS) (AGS cells; selectivity index, IC50 (L-02)/IC50 (AGS)): >5000; total apoptotic cells (early + late apoptotic cells) (BEL-7402 cells [6]): 10.7%; SI IC50 (L-02/A549) (A549 lung cancer cell; selectivity index, IC50 (L-02)/IC50 (A549)): >227.2; SI IC50 (L-02/HCT116) (HCT116 cells; selectivity index, IC50 (L-02)/IC50 (HCT116)): >3333; SI IC50 (L-02/HepG-2) (HepG2 hepatoma cell; selectivity index, IC50 (L-02)/IC50 (HepG-2)): >106.3; IC50 (MGC-803 cells): 0.06 ± 0.01 µM; SI IC50 (L-02/MGC-803) (MGC-803 cells; selectivity index, IC50 (L-02)/IC50 (MGC-803)): >1666 |
